Laboratory results from PubChem BioAssay AID2060893 (Molecular Pharmacology Branch, DTP, NCI, 2025).

Tested on: K86415-001-R-J1-PDC complex spheroids, viability
Test: Anticancer human tumor K86415-001-R-J1-PDC patient-derived lung adenocarcinoma cell line growth inhibition [RAS]
Settings: for IC50: curve of first compound; for viability, T/C: stronger effect = lower value
Outline: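 Agents were tested in combination matrices in half-log decrements from a top concentration at or near clinical Cmax (10 microM if undetermined). Targets were multi-cell spheroids of tumour lines plus HUVEC and MSC stromal cells.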

[1] = second compound 0.00316 µM, first compound 0.0316 µM
[2] = second compound 0.00316 µM, first compound 0.1 µM
[3] = second compound 0.00316 µM, first compound 0.316 µM
[4] = second compound 0.00316 µM, first compound 1 µM
[5] = second compound 0.01 µM, first compound 0.0316 µM
[6] = second compound 0.01 µM, first compound 0.1 µM
[7] = second compound 0.01 µM, first compound 0.316 µM
[8] = second compound 0.01 µM, first compound 1 µM
[9] = second compound 0.0316 µM, first compound 0.0316 µM
[10] = second compound 0.0316 µM, first compound 0.1 µM
[11] = second compound 0.0316 µM, first compound 0.316 µM
[12] = second compound 0.0316 µM, first compound 1 µM
[13] = second compound 0.1 µM, first compound 0.0316 µM
[14] = second compound 0.1 µM, first compound 0.1 µM
[15] = second compound 0.1 µM, first compound 0.316 µM
[16] = second compound 0.1 µM, first compound 1 µM
[17] = second compound 0.316 µM, first compound 0.0316 µM
[18] = second compound 0.316 µM, first compound 0.1 µM
[19] = second compound 0.316 µM, first compound 0.316 µM
[20] = second compound 0.316 µM, first compound 1 µM
[21] = second compound 1 µM, first compound 0.0316 µM
[22] = second compound 1 µM, first compound 0.1 µM
[23] = second compound 1 µM, first compound 0.316 µM
[24] = second compound 1 µM, first compound 1 µM
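Also: spheroids exposed to agents for seven days before readout.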

Structure (SMILES): CC1(O)CCCC1n1c(=O)c(C(F)F)cc2cnc(NC3CCN(S(C)(=O)=O)CC3)nc21 (centres undefined) + C=CC(=O)N1CCN(c2nc(OCC3CCCN3C)nc3c(F)c(-c4nc(N)cc(C)c4C(F)(F)F)c(Cl)cc23)C(C)C1
- IC50 (second compound 0.00316 µM): < 31.6 nM
- IC50 (second compound 0.01 µM): < 31.6 nM
- IC50 (second compound 0.0316 µM): < 31.6 nM
- IC50 (second compound 0.1 µM): < 31.6 nM
- IC50 (second compound 0.316 µM): < 31.6 nM
- IC50 (second compound 1 µM): < 31.6 nM
- viability, T/C [1]: 14.8%
- viability, T/C [2]: 16.9%
- viability, T/C [3]: 17.3%
- viability, T/C [4]: 20.2%
- viability, T/C (second compound 0.00316 µM, first compound 3.16 µM): 28.1%
- viability, T/C (second compound 0.00316 µM, first compound 10 µM): 5.41%
- viability, T/C [5]: 13.1%
- viability, T/C [6]: 12.6%
- viability, T/C [7]: 12.4%
- viability, T/C [8]: 12.3%
- viability, T/C (second compound 0.01 µM, first compound 3.16 µM): 18.6%
- viability, T/C (second compound 0.01 µM, first compound 10 µM): 5.34%
- viability, T/C [9]: 12.2%
- viability, T/C [10]: 10.1%
- viability, T/C [11]: 10.1%
- viability, T/C [12]: 14.8%
- viability, T/C (second compound 0.0316 µM, first compound 3.16 µM): 16.2%
- viability, T/C (second compound 0.0316 µM, first compound 10 µM): 4.92%
- viability, T/C [13]: 12.1%
- viability, T/C [14]: 10.8%
- viability, T/C [15]: 10.5%
- viability, T/C [16]: 11.5%
- viability, T/C (second compound 0.1 µM, first compound 3.16 µM): 19.4%
- viability, T/C (second compound 0.1 µM, first compound 10 µM): 4.11%
- viability, T/C [17]: 11.4%
- viability, T/C [18]: 11.6%
- viability, T/C [19]: 11.4%
- viability, T/C [20]: 11.4%
- viability, T/C (second compound 0.316 µM, first compound 3.16 µM): 16.2%
- viability, T/C (second compound 0.316 µM, first compound 10 µM): 5.89%
- viability, T/C [21]: 10.4%
- viability, T/C [22]: 10.3%
- viability, T/C [23]: 13.7%
- viability, T/C [24]: 14.7%
- viability, T/C (second compound 1 µM, first compound 3.16 µM): 18.9%
- viability, T/C (second compound 1 µM, first compound 10 µM): 5.93%

Structure (SMILES): CCN1CCN(Cc2ccc(Nc3ncc(F)c(-c4cc(F)c5nc(C)n(C(C)C)c5c4)n3)nc2)CC1 + C=CC(=O)N1CCN(c2nc(OCC3CCCN3C)nc3c(F)c(-c4nc(N)cc(C)c4C(F)(F)F)c(Cl)cc23)C(C)C1
- IC50 (second compound 0.00316 µM): < 3.16 nM
- IC50 (second compound 0.01 µM): < 3.16 nM
- IC50 (second compound 0.0316 µM): < 3.16 nM
- IC50 (second compound 0.1 µM): < 3.16 nM
- IC50 (second compound 0.316 µM): < 3.16 nM
- IC50 (second compound 1 µM): < 3.16 nM
- viability, T/C (second compound 0.00316 µM, first compound 0.00316 µM): 17.1%
- viability, T/C (second compound 0.00316 µM, first compound 0.01 µM): 15.9%
- viability, T/C [1]: 13.3%
- viability, T/C [2]: 15%
- viability, T/C [3]: 18.7%
- viability, T/C [4]: 33.9%
- viability, T/C (second compound 0.01 µM, first compound 0.00316 µM): 10.3%
- viability, T/C (second compound 0.01 µM, first compound 0.01 µM): 11.2%
- viability, T/C [5]: 12.3%
- viability, T/C [6]: 10.7%
- viability, T/C [7]: 13.3%
- viability, T/C [8]: 24.8%
- viability, T/C (second compound 0.0316 µM, first compound 0.00316 µM): 9.79%
- viability, T/C (second compound 0.0316 µM, first compound 0.01 µM): 12.9%
- viability, T/C [9]: 11%
- viability, T/C [10]: 10.2%
- viability, T/C [11]: 11%
- viability, T/C [12]: 18.5%
- viability, T/C (second compound 0.1 µM, first compound 0.00316 µM): 10.1%
- viability, T/C (second compound 0.1 µM, first compound 0.01 µM): 10.5%
- viability, T/C [13]: 9.47%
- viability, T/C [14]: 8.04%
- viability, T/C [15]: 10.6%
- viability, T/C [16]: 14.2%
- viability, T/C (second compound 0.316 µM, first compound 0.00316 µM): 9.47%
- viability, T/C (second compound 0.316 µM, first compound 0.01 µM): 8.55%
- viability, T/C [17]: 9.15%
- viability, T/C [18]: 9.51%
- viability, T/C [19]: 12.2%
- viability, T/C [20]: 17.6%
- viability, T/C (second compound 1 µM, first compound 0.00316 µM): 9.7%
- viability, T/C (second compound 1 µM, first compound 0.01 µM): 11.8%
- viability, T/C [21]: 11.7%
- viability, T/C [22]: 10.2%
- viability, T/C [23]: 11.2%
- viability, T/C [24]: 18.3%
